Measured values taken from patent US7157480B2, “Use of pramipexole to treat amyotrophic lateral sclerosis” (priority 2001, dated 2007).
Like-named read-outs stand apart in the source and are kept apart here.

How the values were obtained:
[1] = tested on: caspase 3; assay type: cell-based, human
Procedure: (§1) SH-SY5Y human neuroblastoma cells were obtained from the American Tissue Culture Collection (www.atcc.org) and maintained in culture in a replicating state. For caspase assays and cytochrome C release studies they were grown in T75 flasks with DMEM/high glucose containing 10% fetal bovine serum, antibiotic/antimicotic (100 IU/ml of penicillin, 100 μg/ml of streptomycin sulfate, 0.25 μg/ml of amphotericin B) and 50 μg/ml of uridine and 100 μg/ml of pyruvate in a 5% CO2 atmosphere at 37° C. to approximately full confluence (2×10^7 cell/flask). They were then incubated with 5 mM methylpyridinium iodide (MPP+; Sigma; www.sigma-aldrich.com) or 100 μM 25–35 or 35–25 beta amyioid peptides (Bachem; www.bachem.com) for varying times, then harvested. For cell death studies, the cells were plated into 96 well black-bottom plates and grown for 24 hours in DMEM media before being exposed to toxin.
(§2) After exposure to MPP+ or beta amyloid peptide, cells were collected in PBS and centrifuged at 450×g for 6 minutes at 4° C. Cell pellets were resuspended in a hypotonic cell lysis buffer [25 mM HEPES, 5 mM MgCl2, 5 mM EDTA, […] and protease inhibitor cocktail (Sigma Chemical)] at a concentration of 2×10^7 cells/100 μl of lysis buffer. Lysates were subjected to four cycles of freezing and thawing. Cell lysates were then centrifuged at 16,000×g for 30 minutes at 4° C. The supernatant fractions were collected, and protein content was measured by Lowry assay (BioRad). 100 μg of protein was used to measure caspase activity in 96 well plates and was assayed in quadruplicate. The activity was measured using the assay buffer and the protocol provided by the manufacturers. (Biomol, caspase 3; Promega, caspases 3 and 9). […] Chromogen absorbance (p-NA) was measured on an OptiMax plate reader or chromogen fluorescence (AMC) on a SpectraMax Gemini plate reader at zero time and after 30 minutes of incubation at 37 degrees to estimate relative caspase activities. Chromogen signal at zero time was subtracted from the readings at 30 minutes.
(§3) R(+) and S(−) PPX (gifts of Pharmacia Corporation) were obtained as their dihydrochloride salts and dissolved directly into culture media. Bongkreckic acid, an antagonist of the ATP binding site on the adenine nucleotide translocator, was provided as a solution in 1M NH4OH. Aristolochic acid (sodium salt), a phospholipase A2 inhibitor, was obtained from Sigma Chemical Co. In the caspase experiments, drugs were added 1 hour before MPP+ or beta amyloid peptide. In the calcein/cell death experiments, drugs were added 4 hours before MPP+.

[2] = tested on: caspase 9; assay type: cell-based, human
Procedure: as §1, §2, §3

[3] = tested on: caspase 3; settings: SH-SY5Y
Procedure: as §1, with “For cell death studies, the cells were plated into 96 well black-bottom plates and grown for 24 hours in DMEM media before being exposed to toxin.” left out
After exposure to MPP+ or beta amyloid peptide, cells were collected in PBS and centrifuged at 450×g for 6 minutes at 4° C. […] The supernatant fractions were collected, and protein content was measured by Lowry assay (BioRad). […] The activity was measured using the assay buffer and the protocol provided by the manufacturers. […] Chromogen absorbance (p-NA) was measured on an OptiMax plate reader or chromogen fluorescence (AMC) on a SpectraMax Gemini plate reader at zero time and after 30 minutes of incubation at 37 degrees to estimate relative caspase activities. Chromogen signal at zero time was subtracted from the readings at 30 minutes. […]

[4] = tested on: SH-SY5Y cells; assay type: cell-based, human
Procedure: as §1
Cell death was estimated by measuring loss of calcein retention with the “Live-Dead” assay (Molecular Probes; www.molecularprobes.com) in cells grown in 96 well plates and incubated with calcein-AM, according to manufacturer's instructions. Calcein signals were assayed in a SpectraMax Gemini adjustable fluorescent plate reader (Molecular Devices). Calcein fluorescence from cells preincubated with methanol was subtracted from all readings as background. Each assay was performed with 8 wells/condition, which were averaged. 3–8 independent experiments were performed to evaluate a broad range of concentrations of S(−) and R(+) PPX in this paradigm.
as §3

[5] = tested on: oxidative stress; settings: 12 SALS subjects
Procedure: The present study was conducted in two phases. […] These participants underwent aspirin loading with subsequent 2,3-DHBA analysis. After receiving 1.3 grams of aspirin po, blood was drawn 2, 3, and 4 hours later. Serum was separated, frozen and stored at −80 degrees. Aliquots of serum were subsequently coded and blinded for 2,3-DHBA and salicylate assays.
The subjects received 1.3 grams of aspirin po, and blood was drawn 3 hours later. Following acquisition of these baseline samples, SALS participants began pramipexole therapy. Dosage escalation was performed similar to PD patients with an attempt made to reach 1.5 mg t.i.d.-q.i.d. as the final dose, following a 7 week titration. After each participant was on his/her highest pramipexole dose for three weeks, the aspirin loading study was performed once again. […] Each participant was then offered the opportunity to continue with pramipexole treatment.
Preparation of serum: 0.9 ml of serum at 4° C. was mixed with 0.2 ml of 1 M perchloric acid and centrifuged at 15,000 rpm for 10 minutes in a refrigerated microcentrifuge.
Assay for 2,3-DHBA: 20 uL of supernatant were injected in duplicate onto a C18 “Catecholamine” Adsorbosphere column (Alltech) perfused at 0.6 ml/min with buffer consisting of 125 ml/L acetonitrile, 1.5 gn/L of sodium heptane sulfonate, 3 ml/L triethylamine, 100 mg/L of Na2 EDTA with final pH adjusted to 2.8 with phosphoric acid. Detection utilized a CouloChem II flow-through electrochemical detector (ESA, with the following settings: guard cell=+600 mV; E1=−100 mV; E2=+400 mV). 2,3-DHBA eluted at 10–10.5 minutes under these conditions.
Assay for salicylate: 50 uL of supernatant were injected in duplicate onto a C8 Kromosil HPLC column (Alltech) perfused at 0.8–1.0 ml/min with 70% methanol/30% water/0.5% trifluoroacetic acid. Salicylate eluted at 6–7 minutes under these conditions and was detected by ultraviolet absorption at 315 nm.

[6] = ALS subjects who completed dose escalation, 3–6 mg per day
Procedure: Following acquisition of these baseline samples, SALS participants began pramipexole therapy. Dosage escalation was performed similar to PD patients with an attempt made to reach 1.5 mg t.i.d.-q.i.d. as the final dose, following a 7 week titration.

[7] = tested on: D2 family dopamine receptors; settings: cited from earlier work
[8] = tested on: oxidative stress; test: MPTP-induced forebrain oxidative stress (2,3-DHBA) in mice; assay type: in vivo, C57BL/6 mice; settings: MPTP 30 mg/kg s.c.
Procedure: Male C57BL/6 mice received daily R(+) pramipexole dihydrochloride in drinking water for 8 weeks at doses calculated to provide 0, 10, 30 or 100 mg/kg/day. On the day of the study the mice were injected with 30 mg/kg s.c. of the neurotoxin N-methyl-4-phenyl-1,2,3,6-tetrahydropyridine (MPTP) to increase oxidative stress in the brain. One hour later the mice were injected with 100 mg/kg i.p. of sodium salicylate. One hour after salicylate injection the mice were killed and forebrains analyzed for 2,3-dihydroxybenzoic acid (2,3-DHBA) content.

[9] = 8 week toxicology study in mice, pathology of major organs; assay type: in vivo; settings: drinking water, 8 weeks
Procedure: Toxicology studies have also been conducted and no evidence of adverse effects were detected. In particular, an 8 week toxicology study was performed in the mice given R(+) PPX in their drinking water.

[10] = relative to S(−) pramipexole; cited from earlier work

## CO[C@H](C/C=C\C=C\CC/C=C/C[C@H](C)/C=C/C(=C\C(=O)O)CC(=O)O)/C(C)=C\C=C(/C)C(=O)O [bongkreckic acid, Bongkreckic acid]
[1]; SH-SY5Y, 5 mM MPP+ 24 hours, 250 μM bongkreckic acid, p<0.05 vs MPP+
  MPP+-induced caspase 3 activation: blocked
[2]; SH-SY5Y, 5 mM MPP+ 8 hr, 250 μM bongkreckic acid
  MPP+-induced increases in caspase 9 activity: blocked

## CCCN[C@H]1CCc2nc(N)sc2C1 [S(−) PPX, S(−)-2-amino-4,5,6,7-tetrahydro-6-propylaminobenzathiazole]
[1]
  MPP+-induced caspase 3 activation: suppressed
[2]
  MPP+-induced increases in caspase 9 activity: blocked
[3]; 100 μM beta amyloid 25–35
  reduction of the increases in caspase 3 activity following BA 25–35 peptide: about 70%
[3]; drug alone without toxin
  effect on caspase 3 activity by itself: no suppressive effect
[4]
  calcein retention in the presence of MPP+, enantiomer comparison: greater calcein retention than R(+) PPX
  calcein uptake after MPP+: substantially restored
[5]; 3–6 mg per day oral, pre vs post treatment, 3 hours after 1.3 grams aspirin, p=0.015
  mean reduction of serum 2,3-DHBA concentration: about 45%
[5]; 3–6 mg per day oral, pre vs post treatment, p=0.010
  average reduction of serum 2,3-DHBA normalized to salicylate levels: 59%
[5]; without exception
  individual serum levels of 2,3-DHBA pre vs post treatment: reduced
[6]
  tolerability: well tolerated
[7]
  dopamine agonist activity: potent agonist

## CCCN[C@@H]1CCc2nc(N)sc2C1.Cl.Cl [R(+) PPX, R(+)-2-amino-4,5,6,7-tetrahydro-6-propylaminobenzathiazole dihydrochloride]
[1]; SH-SY5Y, 5 mM MPP+ 24 hours, 1 mM PPX added 1 hour before, p<0.05 vs MPP+
  MPP+-induced caspase 3 activation: suppressed
[2]; SH-SY5Y, 5 mM MPP+ 8 hr, 1 mM PPX
  MPP+-induced increases in caspase 9 activity: blocked
[4]; 3 nM PPX, 5 mM MPP+ 24 hours, p=0.035
  calcein retention in the presence of MPP+, enantiomer comparison: greater calcein retention than S(−) PPX
[4]; SH-SY5Y, 5 mM MPP+ 24 hours, 30 nM PPX added 4 hours before, effect retained through 30 μM
  calcein uptake after MPP+: substantially restored
[8]; 30 mg/kg/day in drinking water for 8 weeks
  forebrain oxidative stress produced by MPTP (2,3-DHBA): significantly reduced
[8]; 100 mg/kg/day in drinking water for 8 weeks
  forebrain oxidative stress produced by MPTP (2,3-DHBA): significantly reduced
[9]
  pathological examination of all major organs: no lesions were found
[7]
  dopamine agonist activity: very little dopamine agonist activity
[10]
  potency to produce the side effects that result from the use of S(−) pramipexole: ≤ 1%

## C[n+]1ccc(-c2ccccc2)cc1.[I-] [MPP+, methylpyridinium iodide]
[1]; SH-SY5Y, 5 mM MPP+, by 24 hours
  increase of caspase 3 activity: about 2 fold
[4]; SH-SY5Y, 5 mM MPP+ alone, 24 hours
  reduction of calcein uptake: about 60%

## COc1cccc2c1cc([N+](=O)[O-])c1c(C(=O)O)cc3c(c12)OCO3 [aristolochic acid, Aristolochic acid]
[1]; SH-SY5Y, 5 mM MPP+ 24 hours, 25 μM aristolochic acid, p<0.05 vs MPP+
  MPP+-induced caspase 3 activation: prevented increases
[2]; SH-SY5Y, 5 mM MPP+ 8 hr, 25 μM aristolochic acid
  MPP+-induced increases in caspase 9 activity: blocked
